Here are results for one substance from US12704520B2, “Melanogenesis detection method using FAM86A” (Research & Business Foundation Sungkyunkwan University, priority 2019, dated 2026).

For data set [1], the system named is B16F10 cells. The data set is described as follows: Melanin content assay after FAM86A knockdown and α-MSH treatment. Conditions: FAM86A knockdown plus α-MSH 100 nM, 48 hours, absorbance 405 nm. Type of data set: cell-based, mouse. On the procedure:
A melanocyte stimulating hormone (α-MSH), which is a melanin synthesis promoting hormone, was used to induce melanogenesis in melanocytes.
The B16F10 cells cultured in Example 1 were seeded in 6-well plates at a density of 5×10^4 cells per well, grown for 24 hours, and FAM86A shRNA represented by SEQ ID NO: 17 in Table 1 was used for knockdown of the FAM86A gene. The cells were treated with α-MSH to be 100 nM. The resulting cells were cultured in an incubator under conditions of 37° C. and 5% CO2 for 48 hours, the medium was removed, and a cell lysis buffer was treated at 200 μL per well to lyse the cells, followed by centrifugation at 4° C. and 12,000 rpm for 5 minutes and removal of a supernatant. The resulting pellet was treated with 100 μL of a 10% sodium dodecyl sulfate-1M NaOH solution and heated for 30 minutes at 60° C. Afterward, the heated solution was maintained at room temperature to cool to 25° C., absorbance at 405 nm was measured, and the results are shown in FIG. 12. Here, an amount of melanin production was calculated based on 100% of the amount of melanin in cells not treated with α-MSH.

Data set [2] relates to B16F10 cells. Kind of data set: Melanin secretion assay after FAM86A knockdown and α-MSH treatment. Conditions: FAM86A knockdown plus α-MSH 100 nM, 48 hours, absorbance 475 nm. It counts as cell-based, mouse. As for the experimental part: The melanin synthesis promoting hormone α-MSH was used to induce melanogenesis in melanocytes.
The B16F10 cells cultured in Example 1 were seeded in a 6-well plate at 5×10^4 cells/well and cultured for 24 hours, FAM86A (family with sequence similarity 86, member A) shRNA represented by SEQ ID NO: 17 was used for knockdown of the FAM86A gene, and then the cells were treated with α-MSH at 100 nM. The resulting cells were cultured in an incubator under conditions of 37° C. and 5% CO2 for 48 hours, and 800 μL of the cell culture fluid was transferred to a fresh tube, and centrifuged at 4° C. and 12,000 rpm for 5 minutes to obtain a supernatant. 100 μL of the resulting supernatant was dispensed into a 96-well plate, and subjected to absorbance measurement at 475 nm. Here, an amount of melanin production was calculated based on 100% of the amount of melanin in cells not treated with α-MSH.

As to “SEQ ID NO: 17: FAM86 shRNA (Mus musculus, NM_027446.2), pLKO.1 vector, target sequence SEQ ID NO: 27; used in the examples (DNA CCGGGTCTATGTAGCCTATACTATCCTCGAGGATAGTATAGGCTACATAGACTTTTTG)”, the “amount of melanin (production)” value in the data set on B16F10 cells [1] is “increased”. The “secretion amount of melanin” value in the data set with B16F10 cells [2] is “increased”.
